The test system of assay [1] is neutrophil migration across confluent HMECs. The assay can be described thus: LTB4 induced neutrophil migration across HMEC monolayers (transwell, MPO assay). Particulars: for effect on LTB4 induced neutrophil migration at 1 nM / effect on LTB4 induced neutrophil TEM at higher doses (100 nM): 1 h pretreatment, 100 nM LTB4; for effect on LTB4 induced neutrophil migration (dose response): 1 h pretreatment at 1-100 nM, 100 nM LTB4, 3 h migration. Format: cell-based, human. How it is done: FIG. 6 graphically depicts protection against LTB4 induced PMN TEM with PMA up to 48 h after pretreatment. HMECs were pretreated for 1 h with PMA and washed with HBSS three times to remove PMA prior to replacement of culture medium. Neutrophil migration studies were then performed at 0, 24, or 48 hours. Migration was stimulated by adding 500,000 neutrophils to the top well and 100 nM LTB4 to the lower well at 0, 24, and 48 hours after PMA pretreatment. […] PMA (100 nM, (10^−7M) reduced LTB4 induced migration up to 48 hours after 1 h of endothelial-specific pretreatment (***p<0.001).
Referring now to FIG. 7, FIG. 7 graphically depicts protection from LTB4 induced PMN TEM with Bryostatin-1 up to 48 hours after pretreatment. HMECs were pretreated for 1 h with Bryostatin-1 and washed with HBSS three times to remove Bryostatin-1 prior to replacement of culture medium. Neutrophil migration studies were then performed at 0, 24, or 48 hours. Migration was stimulated by adding 500,000 neutrophils to the top well and 100 nM LTB4 to the lower well at 0, 24, and 48 hours after Bryostatin-1 pretreatment. […] Bryostatin-1 (100 nM) reduced LTB4 induced migration up to 48 hours after 1-hour endothelial pretreatment (***p<0.001).
Cell Culture: HMECs were a generous gift from Dr. Francisco Candal (Centers for Disease Control), and are derived from the subcutaneous microvasculature. HMECs were maintained in MCDB-131 supplemented with 10% FCS, 1% antibiotic antimycotic, 10 ng/ml EGF, and […] hydrocortisone. The cell cultures were incubated at 37° C. in a humidified atmosphere with 7.5% CO2 and expanded by brief trypsinization (0.25% trypsin in phosphate-buffered saline containing 0.02% EDTA). HMECs were seeded onto 8 μm inserts for migration assays and 48-well plates for endothelial viability studies. Human umbilical vein endothelial cells (HUVECs) were harvested from umbilical cords by 0.25% collagenase treatment for 20 min at 37° C. HUVECs were maintained in Endothelial Growth Medium (EGM) supplemented with Bovine Brain Extract. The cell cultures were incubated at 37° C. in a 100% humidified atmosphere with 5% C02 and expanded by brief trypsinization. Primary passage HUVEC were seeded onto fibronectin coated (25 μg/ml)8 μm inserts for migration assays and 48-well plates for endothelial viability studies. Culture medium was replaced every second day. Cells were identified as endothelial cells by their cobblestone appearance at confluency, positive labeling with acetylated low density lipoprotein labeled with 1,11-dioctadecyl-1 3,3,31,31,3-tetramethylindocarbocyanine perchlorate (Dil-Ac-LDL; Biomedical Technologies, Inc.) and mouse antihuman factor […] (Calbiochem, San Diego, Calif.).
Neutrophil Isolation: Neutrophils were isolated using a Ficoll gradient. Whole blood was taken from human donors, and 5 ml was layered on top of two layers of Histopaque. Tubes were spun at 2,100 rpm for 40 min. The neutrophil layer was added to cold PBS and re-spun at 2,100 rpm for 5 min. Supernatant was removed and neutrophils were suspended in a fixed amount of PBS to determine cell count. Cells were kept on ice until assays were performed.
[…] Inserts were washed three times with Hank's Balanced Salt Solution (HBSS) (to eliminate drug effects on the neutrophils) and placed in a new plate containing either 500 μL 100 nM LTB4, or HBSS alone for control. 500 μL HBSS was then added to the top well and spiked with 500,000 neutrophils. For TNF-α experiments, HMECs were left in 20 ng/ml TNF-α in MCDB-131 for 24 h TNF-α was removed and HMECs washed three times. […] The drug was removed, and cells were washed three times. 500 μL HBSS was added to both upper and lower chambers and spiked with 500,000 neutrophils. Neutrophils were allowed to migrate for 3 h at 37° C. Migration was stopped by removing the inserts and migration was measured using the myeloperoxidase (MPO) assay.
Myeloperoxidase Assay: Neutrophil migration was measured using myeloperoxidase (MPO) analysis. […]

Assay [2] concerns PKC-ε siRNA nucleofected HUVEC. The assay can be described thus: LTB4 mediated neutrophil migration across PKC-ε siRNA nucleofected HUVEC. Format: cell-based, human. Particulars: 1 h pretreatment; PKC-ε knockdown. The source says: Because studies in FIG. 8 could not discriminate between PKC-δ and […] isoforms mediating the effect of Bryostatin-1, we knocked down individual isoforms using siRNA technology. In order to verify that we could knock down particular isoforms of PKC, specifically PKC-8 and PKC-ε isoforms in HUVEC, siRNA which selectively bind to and eliminate human PKC-8 and PKC-ε mRNAs were nucleofected into HUVEC prior to migration studies. […] HUVEC cells treated using these approaches were then subjected to chemotaxis studies with Bryostatin-1 to elucidate the mechanism of Bryostatin-1 mediated inhibition of LTB4 induced PMN migration.
Neutrophil Transendothelial Migration (TEM) Restoration Studies: HUVECs were pretreated with Go-6983 (1, 10, 100 nM), or Go-6976 (1, 10,100 nM) for 30 minutes, then spiked with 100 nM Bryostatin-1 for 1 hour. […] Migration was stopped by removing the inserts and migration was measured using the MPO assay.
Myeloperoxidase Assay: Neutrophil migration was measured using myeloperoxidase (MPO) analysis. […] The supernatant was removed, and MPO activity was measured using TMB/peroxide as chromogen. The reaction was stopped with sulfuric acid and absorbance was read at 450 nm using a microplate reader. […] Data was expressed as “% neutrophil migration”, which allowed cumulative statistical analysis to be done and account for unpreventable batch-to-batch variations. […]

The next assay deals with T84 intestinal epithelia. To be noted: cited from earlier work.

Entries after “also recorded” stand apart in the source; their conditions may differ.

`CCC/C=C/C=C/C(=O)O[C@H]1/C(=C/C(=O)OC)C[C@H]2C[C@H]([C@@H](C)O)OC(=O)C[C@H](O)C[C@@H]3C[C@H](OC(C)=O)C(C)(C)[C@](O)(C[C@@H]4C/C(=C/C(=O)OC)C[C@H](/C=C/C(C)(C)[C@]1(O)O2)O4)O3` [Bryostatin-1]: in assay [1], the “effect on LTB4 induced neutrophil migration at 1 nM” value is on record as “did not reduce PMN TEM”, the “effect on LTB4 induced neutrophil TEM at higher doses (100 nM)” value is given as “attenuated neutrophil TEM to levels below that of basal migration” and the “effect on LTB4 induced neutrophil migration (dose response)” value is recorded as “dose-dependently reduced; also recorded: reduced LTB4 induced migration in a dose dependent manner”. For the same compound, in assay [1] (single 1 h 100 nM pretreatment, washed, tested at 0, 24, 48 h), the “time after pretreatment for which reduction of LTB4 induced migration is maintained, HMECs” value was found to be 48 h. For the same compound, the “effect on LTB4 mediated neutrophil migration in PKC-ε siRNA nucleofected HUVEC” value in assay [2] is reported as “did not restore LTB4 induced migration; also recorded: still suppresses migration”. In addition, the “barrier function and TNF-α induced barrier loss” value in the assay on T84 intestinal epithelia was “enhances barrier function and inhibits barrier loss induced by TNF-α”.
For the compound `CCCCCCCCCCCCCC(=O)O[C@@H]1[C@@H](C)[C@@]2(O)[C@@H](C=C(CO)C[C@]3(O)C(=O)C(C)=C[C@@H]23)[C@@H]2C(C)(C)[C@]12OC(C)=O` [PMA, phorbol myristate acetate], in assay [1], the “effect on LTB4 induced neutrophil migration at 1 nM” value is reported as “did not reduce PMN TEM; also recorded: had no effect”, the “effect on LTB4 induced neutrophil TEM at higher doses (100 nM)” value is “attenuated neutrophil TEM to levels below that of basal migration” and the “effect on LTB4 induced neutrophil migration (dose response)” value is “dose-dependently reduced; also recorded: reduced LTB4 induced migration in a dose dependent manner”. In addition, the “effect on LTB4 mediated neutrophil migration in PKC-ε siRNA nucleofected HUVEC” value in assay [2] was “did not restore LTB4 induced migration”.

The values are drawn from patent US20230139328A1, “DOSAGE FORMS FOR IMPROVING ORGAN TRANSPLANTATION, GRAFT VERSUS HOST DISEASE AND STEM CELLS TRANSPLANTS” (Aphios Corporation, priority 2020, published 2023).
